Results as given in PubChem BioAssay AID248 (DTP/NCI, 2004).
Where “and” joins values, the source holds several entries; their conditions need not be identical. Equal entries are not always repeated. Toxic doses and inconclusive results are not listed.

Test system: L1210 leukemia ip in BDF1 mice, survival T/C
Experiment: NCI In Vivo Anticancer Drug Screen. Data for tumor model L1210 Leukemia (intraperitoneal) in B6D2F1 (BDF1) mice
Settings: endpoint: mean survival time, higher = longer survival
Procedure, shortened: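 Transplanted-tumor mice were given test agent; controls received vehicle only. Survival readings from the two groups were divided (treated over control).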

[1] = dose: 100.0 mg/kg/injection, schedule: Q04DX002 (ip), vehicle: Klucel (hydroxypropylcellulose) (HPC)
[2] = dose: 200.0 mg/kg/injection, schedule: Q04DX002 (ip), vehicle: Klucel (hydroxypropylcellulose) (HPC)
[3] = dose: 100.0 mg/kg/injection, schedule: Q01DX009 (ip), vehicle: saline
[4] = dose: 400.0 mg/kg/injection, schedule: Q04DX002 (ip), vehicle: Klucel (hydroxypropylcellulose) (HPC)
[5] = dose: 200.0 mg/kg/injection, schedule: Q04DX003 (ip), vehicle: Klucel (hydroxypropylcellulose) (HPC)
[6] = dose: 400.0 mg/kg/injection, schedule: Q04DX003 (ip), vehicle: Klucel (hydroxypropylcellulose) (HPC)
[7] = dose: 100.0 mg/kg/injection, schedule: Q01DX001 (ip), vehicle: carboxymethylcellulose (CMC)
[8] = dose: 200.0 mg/kg/injection, schedule: Q01DX001 (ip), vehicle: carboxymethylcellulose (CMC)
[9] = dose: 400.0 mg/kg/injection, schedule: Q01DX001 (ip), vehicle: carboxymethylcellulose (CMC)
[10] = dose: 100.0 mg/kg/injection, schedule: Q01DX001 (ip), vehicle: saline
[11] = dose: 100.0 mg/kg/injection, schedule: Q01DX009 (ip), vehicle: Klucel (hydroxypropylcellulose) (HPC)
[12] = dose: 200.0 mg/kg/injection, schedule: Q01DX001 (ip), vehicle: saline
[13] = dose: 400.0 mg/kg/injection, schedule: Q01DX001 (ip), vehicle: saline
[14] = dose: 50.0 mg/kg/injection, schedule: Q04DX003 (ip), vehicle: Klucel (hydroxypropylcellulose) (HPC)
[15] = dose: 100.0 mg/kg/injection, schedule: Q04DX003 (ip), vehicle: Klucel (hydroxypropylcellulose) (HPC)

## CC(C)(C)c1ccc(C(C)(C)C)c(O)c1
dose: 25.0 mg/kg/injection, schedule: Q04DX002 (ip), vehicle: Klucel (hydroxypropylcellulose) (HPC)
  T/C: 92 % of control and 90 % of control
dose: 50.0 mg/kg/injection, schedule: Q04DX002 (ip), vehicle: Klucel (hydroxypropylcellulose) (HPC)
  T/C: 95 % of control and 96 % of control
[1]
  T/C: 92 % of control and 104 % of control
[2]
  T/C: 92 % of control and 86 % of control

## NC(=O)NNC(N)=O
dose: 50.0 mg/kg/injection, schedule: Q01DX009 (ip), vehicle: saline
  T/C: 91 % of control
[3]
  T/C: 98 % of control
dose: 100.0 mg/kg/injection, schedule: Q04DX003 (ip), vehicle: saline
  T/C: 102 % of control
dose: 200.0 mg/kg/injection, schedule: Q04DX003 (ip), vehicle: saline
  T/C: 101 % of control

## CC1=CC(=O)C2=C(C)CCC3C(C)C(=O)OC3C12 (stereo not given)
dose: 200.0 mg/kg/injection, schedule: Q01DX001 (ip), vehicle: saline with Tween-80
  T/C: 98 % of control
dose: 400.0 mg/kg/injection, schedule: Q01DX001 (ip), vehicle: saline with Tween-80
  T/C: 162 % of control

## CSc1cccc[n+]1[O-]
[3]
  T/C: 105 % of control
dose: 100.0 mg/kg/injection, schedule: Q04DX002 (ip), vehicle: saline
  T/C: 103 % of control and 108 % of control
dose: 200.0 mg/kg/injection, schedule: Q01DX009 (ip), vehicle: saline
  T/C: 108 % of control
dose: 200.0 mg/kg/injection, schedule: Q04DX002 (ip), vehicle: saline
  T/C: 105 % of control
dose: 400.0 mg/kg/injection, schedule: Q01DX009 (ip), vehicle: saline
  T/C: 101 % of control
dose: 400.0 mg/kg/injection, schedule: Q04DX002 (ip), vehicle: saline
  T/C: 108 % of control and 118 % of control

## C[N+](C)(C)c1ncncn1
dose: 12.0 mg/kg/injection, schedule: Q04DX003 (ip), vehicle: saline
  T/C: 98 % of control
dose: 25.0 mg/kg/injection, schedule: Q04DX003 (ip), vehicle: saline
  T/C: 98 % of control
dose: 50.0 mg/kg/injection, schedule: Q04DX003 (ip), vehicle: saline
  T/C: 104 % of control

## NC(=O)NNc1ccccc1
[1]
  T/C: 94 % of control
[2]
  T/C: 94 % of control
[4]
  T/C: 90 % of control

## Cc1ccc(S/C(=C/c2ccccc2)C(N)=O)cc1
[5]
  T/C: 93 % of control
[6]
  T/C: 95 % of control

## O=C1OCC/C1=C/OCCCCCCO/C=C1/CCOC1=O
[1]
  T/C: 102 % of control
[2]
  T/C: 102 % of control
[4]
  T/C: 91 % of control

## Cc1cc(NC(=O)Nc2ccc(F)cc2)no1
[7]
  T/C: 100 % of control
dose: 100.0 mg/kg/injection, schedule: Q01DX009 (ip), vehicle: carboxymethylcellulose (CMC)
  T/C: 97 % of control and 105 % of control
dose: 100.0 mg/kg/injection, schedule: Q04DX002 (ip), vehicle: carboxymethylcellulose (CMC)
  T/C: 104 % of control
[8]
  T/C: 97 % of control
dose: 200.0 mg/kg/injection, schedule: Q01DX009 (ip), vehicle: carboxymethylcellulose (CMC)
  T/C: 97 % of control
dose: 200.0 mg/kg/injection, schedule: Q04DX002 (ip), vehicle: carboxymethylcellulose (CMC)
  T/C: 92 % of control and 102 % of control
[9]
  T/C: 101 % of control
dose: 400.0 mg/kg/injection, schedule: Q01DX009 (ip), vehicle: carboxymethylcellulose (CMC)
  T/C: 94 % of control and 95 % of control
dose: 400.0 mg/kg/injection, schedule: Q04DX002 (ip), vehicle: carboxymethylcellulose (CMC)
  T/C: 92 % of control and 94 % of control

## [N-]=[N+]=NC(c1ccccc1)(c1ccccc1)c1ccccc1
dose: 100.0 mg/kg/injection, schedule: Q04DX002 (ip), vehicle: saline with Tween-80
  T/C: 97 % of control
dose: 200.0 mg/kg/injection, schedule: Q04DX002 (ip), vehicle: saline with Tween-80
  T/C: 97 % of control
dose: 400.0 mg/kg/injection, schedule: Q04DX002 (ip), vehicle: saline with Tween-80
  T/C: 97 % of control

## CC1(O)CCCCCC1
dose: 50.0 mg/kg/injection, schedule: Q01DX001 (ip), vehicle: carboxymethylcellulose (CMC)
  T/C: 107 % of control
[7]
  T/C: 100 % of control
[8]
  T/C: 94 % of control
[9]
  T/C: 89 % of control

## CCCCCCCCC(CCCCCCCC)CCc1ccccc1
dose: 100.0 mg/kg/injection, schedule: Q01DX001 (ip), vehicle: saline + alcohol
  T/C: 101 % of control
dose: 200.0 mg/kg/injection, schedule: Q01DX001 (ip), vehicle: saline + alcohol
  T/C: 100 % of control
dose: 400.0 mg/kg/injection, schedule: Q01DX001 (ip), vehicle: saline + alcohol
  T/C: 97 % of control

## O=C(O)C1CC2CCC1CC2 (stereo not given)
[10]
  T/C: 104 % of control
[11]
  T/C: 100 % of control
dose: 100.0 mg/kg/injection, schedule: Q04DX003 (ip), vehicle: saline with Tween-80
  T/C: 92 % of control
[12]
  T/C: 93 % of control
dose: 200.0 mg/kg/injection, schedule: Q01DX009 (ip), vehicle: Klucel (hydroxypropylcellulose) (HPC)
  T/C: 92 % of control
dose: 200.0 mg/kg/injection, schedule: Q04DX003 (ip), vehicle: saline with Tween-80
  T/C: 95 % of control
[13]
  T/C: 100 % of control
dose: 400.0 mg/kg/injection, schedule: Q01DX009 (ip), vehicle: Klucel (hydroxypropylcellulose) (HPC)
  T/C: 92 % of control
dose: 400.0 mg/kg/injection, schedule: Q04DX003 (ip), vehicle: saline with Tween-80
  T/C: 101 % of control

## CCN(CC)CCCC#CCN1CCCCC1
dose: 25.0 mg/kg/injection, schedule: Q01DX009 (ip), vehicle: Klucel (hydroxypropylcellulose) (HPC)
  T/C: 100 % of control
dose: 25.0 mg/kg/injection, schedule: Q04DX003 (ip), vehicle: Klucel (hydroxypropylcellulose) (HPC)
  T/C: 103 % of control
dose: 50.0 mg/kg/injection, schedule: Q01DX009 (ip), vehicle: Klucel (hydroxypropylcellulose) (HPC)
  T/C: 101 % of control
[14]
  T/C: 106 % of control
[11]
  T/C: 102 % of control
[15]
  T/C: 103 % of control

## CCOC(=O)C1(C(=O)OCC)COC(=O)C1
dose: 50.0 mg/kg/injection, schedule: Q01DX009 (ip), vehicle: acetone
  T/C: 94 % of control
dose: 100.0 mg/kg/injection, schedule: Q01DX009 (ip), vehicle: acetone
  T/C: 97 % of control
dose: 100.0 mg/kg/injection, schedule: Q04DX003 (ip), vehicle: acetone
  T/C: 107 % of control
dose: 200.0 mg/kg/injection, schedule: Q01DX009 (ip), vehicle: acetone
  T/C: 100 % of control
dose: 200.0 mg/kg/injection, schedule: Q04DX003 (ip), vehicle: acetone
  T/C: 96 % of control
dose: 400.0 mg/kg/injection, schedule: Q04DX003 (ip), vehicle: acetone
  T/C: 98 % of control

## Nc1[nH]c(=O)nc2nc(I)[nH]c12
[7]
  T/C: 97 % of control
[8]
  T/C: 100 % of control
[9]
  T/C: 113 % of control

## CC(C)(O)C(=NCc1ccccc1)c1ccccc1
dose: 75.0 mg/kg/injection, schedule: Q04DX003 (ip), vehicle: other
  T/C: 97 % of control
dose: 150.0 mg/kg/injection, schedule: Q04DX003 (ip), vehicle: other
  T/C: 92 % of control
dose: 300.0 mg/kg/injection, schedule: Q04DX003 (ip), vehicle: other
  T/C: 98 % of control

## O=c1c2ccccc2[nH]c2ccccc12
[14]
  T/C: 103 % of control
dose: 100.0 mg/kg/injection, schedule: Q01DX001 (ip), vehicle: Klucel (hydroxypropylcellulose) (HPC)
  T/C: 95 % of control
dose: 100.0 mg/kg/injection, schedule: Q01DX Z (ip), vehicle: carboxymethylcellulose (CMC)
  T/C: 96 % of control
[15]
  T/C: 101 % of control
dose: 200.0 mg/kg/injection, schedule: Q01DX001 (ip), vehicle: Klucel (hydroxypropylcellulose) (HPC)
  T/C: 98 % of control
dose: 200.0 mg/kg/injection, schedule: Q01DX Z (ip), vehicle: carboxymethylcellulose (CMC)
  T/C: 103 % of control
[5]
  T/C: 106 % of control and 97 % of control
dose: 400.0 mg/kg/injection, schedule: Q01DX001 (ip), vehicle: Klucel (hydroxypropylcellulose) (HPC)
  T/C: 95 % of control
dose: 400.0 mg/kg/injection, schedule: Q01DX Z (ip), vehicle: carboxymethylcellulose (CMC)
  T/C: 105 % of control
[6]
  T/C: 103 % of control and 96 % of control

## CCCN=Cc1cc(Cl)ccc1O.CCCN=Cc1cc(Cl)ccc1O.[Ni]
dose: 100.0 mg/kg/injection, schedule: Q01DX008 (sc), vehicle: olive oil, sesame oil, peanut oil
  T/C: 104 % of control
dose: 200.0 mg/kg/injection, schedule: Q01DX008 (sc), vehicle: olive oil, sesame oil, peanut oil
  T/C: 98 % of control
dose: 400.0 mg/kg/injection, schedule: Q01DX008 (sc), vehicle: olive oil, sesame oil, peanut oil
  T/C: 86 % of control

## O=C1CCc2cc([N+](=O)[O-])ccc2O1
dose: 50.0 mg/kg/injection, schedule: Q01DX001 (ip), vehicle: saline
  T/C: 103 % of control
[10]
  T/C: 92 % of control
[12]
  T/C: 94 % of control
[13]
  T/C: 103 % of control
